Each block holds one molecule with its values, some of them ahead of it.
Tests used:
[1] = system: PQS-675-WT (RNA, G4) GGGCGGGCGGCCUGCAGGGACAUGGG; assay: fluorescence light-up; details: 150 mM K+, 10 mM Tris-HCl pH 7.5, 2 µM RNA
[2] = system: PQS-675-Mut (RNA, single strand) GAGCGAGCGGCCUGCAGAGACAUGAG; assay: fluorescence light-up; details: 150 mM K+, 10 mM Tris-HCl pH 7.5, 2 µM RNA
[3] = system: PQS-675-Mut-FRET (RNA, single strand) GAGCGAGCGGCCUGCAGAGACAUGAG; assay: FRET melting; details: 150 mM K+; 10 mM Tris-HCl pH 7.5; 1 µM PDS, 200 nM RNA; derived from two Tm (38.33, 38.03)
[4] = system: PQS-675-WT-FRET (RNA, G4) GGGCGGGCGGCCUGCAGGGACAUGGG; assay: FRET melting; details: 10 mM Tris-HCl pH 7.5, 1 µM PDS, 200 nM RNA
[5] = system: PQS-675-WT (RNA, G4) GGGCGGGCGGCCUGCAGGGACAUGGG; assay: CD melting at 264 nm; details: 10 mM Tris-HCl pH 7.5, 5 µM RNA, PDS concentration not stated
[6] = system: PQS-675-Mut-biotin (RNA, single strand) GAGCGAGCGGCCUGCAGAGACAUGAG; assay: bio-layer interferometry; details: K+ (folded in 150 mM KCl); PBST (PBS, 0.01% Tween-20), 25 °C; PDS 0.5-8 µM; 1:1 model; RNA immobilised
[7] = system: PQS-675-WT-biotin (RNA, G4) GGGCGGGCGGCCUGCAGGGACAUGGG; assay: bio-layer interferometry; details: K+ (folded in 150 mM KCl); PBST (PBS, 0.01% Tween-20), 25 °C; PDS 0.5-8 µM; 1:1 model; RNA immobilised

binding ([1]; 2 µM ThT): yes | binding ([2]; 2 µM ThT, decreased but still strong, non-specific): yes
SMILES: Cc1ccc2c(c1)sc(-c1ccc(N(C)C)cc1)[n+]2C

binding ([1]; 2 µM NMM): yes | binding ([2]; 2 µM NMM, intensity decreased): weak
SMILES: CCc1c(C)c2cc3nc(cc4nc(cc5c(CC)c(C)c(cc1[nH]2)n5C)C(C)=C4CCC(=O)O)C(CCC(=O)O)=C3C

ΔTm [3]: -0.30 °C | ΔTm ([4]; 150 mM K+, derived from two Tm (74.00, 77.48)): 3.48 °C | ΔTm ([4]; 150 mM Li+, derived from two Tm (63.27, 65.71)): 2.44 °C | ΔTm ([5]; 150 mM K+, derived from two Tm (70.00, 74.00)): 4.00 °C | ΔTm ([5]; 150 mM Li+, derived from two Tm (64.00, 64.00)): 0.00 °C | KD [6]: 3.327 ± 7e-05 µM | KD [7]: 0.6049 ± 0.00284 µM
SMILES: NCCOc1cc(C(=O)Nc2cc(OCCN)c3ccccc3n2)nc(C(=O)Nc2cc(OCCN)c3ccccc3n2)c1
